In patent US20230233569A1 (Revolution Medicines, Inc., priority 2020, published 2023):
Where two headings read alike, the source gives them in different places.

Experiments:
AsPC-1 (K-Ras G12D) [1] = assay: Potency assay: pERK; assay type: cell-based; conditions: Homo sapiens
AsPC-1 (K-Ras G12D) [2] = assay: CellTiter-Glo cell viability assay; assay type: cell-based; conditions: Homo sapiens, ASPC1, 120 h
Method: Determination of Cell Viability in RAS Mutant Cancer Cell Lines
Protocol: CellTiter-Glo® Cell Viability Assay
Note—The following protocol describes a procedure for monitoring cell viability of K-Ras mutant cancer cell lines in response to a compound of the invention. Other RAS isoforms may be employed, though the number of cells to be seeded will vary based on cell line used.
Test compounds (132.5 nL) were directly dispensed into the assay plates containing cells. […] On day 5, assay plates and their contents were equilibrated to room temperature for approximately 30 minutes. […] Luminescence was measured using the PerkinElmer Enspire. Data were normalized by the following: (Sample signal/Avg. DMSO)*100. The data were fit using a four-parameter logistic fit.

KRAS G12D = KRAS G12D (Homo sapiens, UniProt P01116+P62937, G12D); assay: Ras-Raf disruption / FRET / MOA assay (BRAF RBD); assay type: biochemical; conditions: KRAS G12D FRET data IC50, Ras-Raf disruption, with Cyclophilin A
Sequence of KRAS G12D (P01116 1-169 isoform P01116-2 G12D limits assumed): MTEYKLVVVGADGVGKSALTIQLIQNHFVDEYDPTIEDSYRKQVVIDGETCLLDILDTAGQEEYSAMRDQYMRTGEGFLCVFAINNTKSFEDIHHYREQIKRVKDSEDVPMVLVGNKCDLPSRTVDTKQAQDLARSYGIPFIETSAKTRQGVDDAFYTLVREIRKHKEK
Sequence of KRAS G12D (P62937 whole entry): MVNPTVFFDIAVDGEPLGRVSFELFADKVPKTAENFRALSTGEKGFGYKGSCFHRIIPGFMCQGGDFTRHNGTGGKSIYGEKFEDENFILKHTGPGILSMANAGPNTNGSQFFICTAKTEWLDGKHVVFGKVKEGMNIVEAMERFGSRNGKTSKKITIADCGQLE
How it was run: (§1)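 TR-FRET in 25 mM HEPES pH 7.3, 100 mM NaCl, 5 mM MgCl2, 0.1% BSA, 0.002% Tween20 with 25 μM Cyclophilin A, 12.5 nM His6-Ras-GMPPNP, 50 nM GST-BRAF RBD; compound 10-point 3-fold series from 30 μM. After 3 h at 25 °C, Eu anti-His/APC anti-GST added for 1.5 h; IC50 from ratio decrease versus DMSO.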

KRAS G12S = KRAS G12S (Homo sapiens, UniProt P01116+P62937, G12S); assay: Ras-Raf disruption / FRET / MOA assay (BRAF RBD); assay type: biochemical; conditions: KRAS G12S FRET data IC50, Ras-Raf disruption, with Cyclophilin A
Sequence of KRAS G12S (P01116 1-169 isoform P01116-2 G12S limits assumed): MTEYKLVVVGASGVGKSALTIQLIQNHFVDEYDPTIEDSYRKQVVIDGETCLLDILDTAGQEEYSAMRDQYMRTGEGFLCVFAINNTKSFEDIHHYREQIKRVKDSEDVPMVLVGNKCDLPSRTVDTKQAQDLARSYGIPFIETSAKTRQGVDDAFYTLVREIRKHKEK
Sequence of KRAS G12S (P62937 whole entry): as the sequence (P62937 whole entry) above
How it was run: as §1

KRAS G12V = KRAS G12V (Homo sapiens, UniProt P01116+P62937, G12V); assay: Ras-Raf disruption / FRET / MOA assay (BRAF RBD); assay type: biochemical; conditions: KRAS G12V FRET data IC50, Ras-Raf disruption, with Cyclophilin A
Sequence of KRAS G12V (P01116 1-169 isoform P01116-2 G12V limits assumed): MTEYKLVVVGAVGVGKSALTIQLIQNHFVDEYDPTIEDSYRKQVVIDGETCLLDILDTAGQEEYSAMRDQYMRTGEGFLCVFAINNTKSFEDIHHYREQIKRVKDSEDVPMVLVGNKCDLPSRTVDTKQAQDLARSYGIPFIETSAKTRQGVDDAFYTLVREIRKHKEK
Sequence of KRAS G12V (P62937 whole entry): as the sequence (P62937 whole entry) above
How it was run: as §1

KRAS G13C = KRAS G13C (Homo sapiens, UniProt P01116+P62937, G13C); assay: Ras-Raf disruption / FRET / MOA assay (BRAF RBD); assay type: biochemical; conditions: KRAS G13C FRET data IC50, Ras-Raf disruption, with Cyclophilin A
Sequence of KRAS G13C (P01116 1-169 isoform P01116-2 G13C limits assumed): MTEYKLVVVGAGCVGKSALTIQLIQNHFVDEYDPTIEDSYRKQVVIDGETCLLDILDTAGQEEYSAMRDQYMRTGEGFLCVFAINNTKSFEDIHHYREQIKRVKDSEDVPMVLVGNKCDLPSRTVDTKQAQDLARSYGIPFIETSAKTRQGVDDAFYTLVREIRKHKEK
Sequence of KRAS G13C (P62937 whole entry): as the sequence (P62937 whole entry) above
How it was run: as §1

KRAS G13D = KRAS G13D (Homo sapiens, UniProt P01116+P62937, G13D); assay: Ras-Raf disruption / FRET / MOA assay (BRAF RBD); assay type: biochemical; conditions: KRAS G13D FRET data IC50, Ras-Raf disruption, with Cyclophilin A
Sequence of KRAS G13D (P01116 1-169 isoform P01116-2 G13D limits assumed): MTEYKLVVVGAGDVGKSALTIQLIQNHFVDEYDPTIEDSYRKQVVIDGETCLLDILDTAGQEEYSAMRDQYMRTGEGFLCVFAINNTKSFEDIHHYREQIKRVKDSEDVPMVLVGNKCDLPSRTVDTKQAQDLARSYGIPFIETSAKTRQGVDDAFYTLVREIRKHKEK
Sequence of KRAS G13D (P62937 whole entry): as the sequence (P62937 whole entry) above
How it was run: as §1

KRAS WT = KRAS WT (Homo sapiens, UniProt P01116+P62937); assay: Ras-Raf disruption / FRET / MOA assay (BRAF RBD); assay type: biochemical; conditions: KRAS WT FRET data IC50, Ras-Raf disruption, with Cyclophilin A
Sequence of KRAS WT (P01116 1-169 isoform P01116-2 limits assumed): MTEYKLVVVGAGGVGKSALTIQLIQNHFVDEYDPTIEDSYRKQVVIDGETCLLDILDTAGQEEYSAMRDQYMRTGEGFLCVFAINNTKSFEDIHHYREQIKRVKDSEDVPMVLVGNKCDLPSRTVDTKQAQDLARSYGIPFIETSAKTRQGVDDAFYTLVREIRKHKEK
Sequence of KRAS WT (P62937 whole entry): as the sequence (P62937 whole entry) above
How it was run: as §1

NRAS G12C = NRAS G12C (Homo sapiens, UniProt P01111+P62937, G12C); assay: Ras-Raf disruption / FRET / MOA assay (BRAF RBD); assay type: biochemical; conditions: NRAS G12C FRET data IC50, NRAS G12C
Sequence of NRAS G12C (P01111 whole entry G12C): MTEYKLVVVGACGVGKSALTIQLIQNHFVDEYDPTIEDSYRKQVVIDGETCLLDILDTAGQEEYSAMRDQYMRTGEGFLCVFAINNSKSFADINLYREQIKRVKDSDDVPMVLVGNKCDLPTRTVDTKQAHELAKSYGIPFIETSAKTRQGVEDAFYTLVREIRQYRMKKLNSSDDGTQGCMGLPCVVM
Sequence of NRAS G12C (P62937 whole entry): as the sequence (P62937 whole entry) above
How it was run: as §1

KRAS G12C = KRAS G12C (Homo sapiens, UniProt P01116+P62937, G12C); assay: Ras-Raf disruption / FRET / MOA assay (BRAF RBD); assay type: biochemical; conditions: KRAS G12C FRET data IC50, Ras-Raf disruption, with Cyclophilin A
Sequence of KRAS G12C (P01116 1-169 isoform P01116-2 G12C limits assumed): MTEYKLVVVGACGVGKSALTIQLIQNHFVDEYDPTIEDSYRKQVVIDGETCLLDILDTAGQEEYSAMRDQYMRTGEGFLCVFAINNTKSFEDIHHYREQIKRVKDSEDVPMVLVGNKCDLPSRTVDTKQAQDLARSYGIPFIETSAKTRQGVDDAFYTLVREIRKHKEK
Sequence of KRAS G12C (P62937 whole entry): as the sequence (P62937 whole entry) above
How it was run: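 His6-K-Ras G12C-GMPPNP (12.5 nM), GST-BRAF RBD (50 nM) and tagless Cyclophilin A (25 μM) incubated 3 h at 25 °C with compound (10-point 3-fold series from 30 μM), pH 7.3 HEPES buffer. Anti-His Eu/anti-GST APC added for 1.5 h; decreased TR-FRET ratio vs DMSO gives IC50.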

[3] = read-out: AsPC-1 Cell Viability assay data IC50, K-Ras G12D, 5-day treatment
[4] = ASPC1, AsPC-1 KRAS G12D, read-out: pERK EC50
[5] = K-Ras G12D, 5-day treatment, read-out: AsPC-1 Cell Viability assay data IC50

| Structure (SMILES) | EC50 (AsPC-1 (K-Ras G12D) [1]; ASPC1, read-out: pERK EC50) | IC50 (AsPC-1 (K-Ras G12D) [2]; [3]) | IC50 (KRAS G12D) | IC50 (KRAS G12S) | IC50 (KRAS G12V) | IC50 (KRAS G13C) | IC50 (KRAS G13D) | IC50 (KRAS WT) | IC50 (NRAS G12C) | IC50 (KRAS G12C) | EC50 (AsPC-1 (K-Ras G12D) [1]; [4]) | IC50 (AsPC-1 (K-Ras G12D) [2]; [5]) |
| --- | --- | --- | --- | --- | --- | --- | --- | --- | --- | --- | --- | --- |
| CCn1c(-c2cccnc2[C@H](C)OC)c2c3cc(ccc31)-c1cc(O)cc(c1)C[C@H](NC(=O)[C@H](C(C)C)N(C)C(=O)[C@H]1CCCN1C(=O)[C@@H]1CN1)C(=O)N1CCC[C@H](N1)C(=O)OCC(C)(C)C2 [Example 151] | < 5 µM | 1 to 10 µM | 0.1 to 1 µM | 0.1 to 1 µM | 0.01 to 0.1 µM | 0.1 to 1 µM | 0.1 to 1 µM | 0.1 to 1 µM | < 0.01 µM | < 0.01 µM | – | – |
| CCn1c(-c2cccnc2[C@H](C)OC)c2c3cc(ccc31)-c1cc(O)cc(c1)C[C@H](NC(=O)[C@H](C(C)C)N(C)C(=O)[C@H]1CCCN1C(=O)[C@H]1CN1)C(=O)N1CCC[C@H](N1)C(=O)OCC(C)(C)C2 [Example 152] | < 5 µM | 1 to 10 µM | 0.1 to 1 µM | 0.1 to 1 µM | 0.1 to 1 µM | 0.01 to 0.1 µM | 0.1 to 1 µM | 0.1 to 1 µM | 0.01 to 0.1 µM | 0.01 to 0.1 µM | – | – |
| CCn1c(-c2cccnc2[C@H](C)OC)c2c3cc(ccc31)-c1cc(O)cc(c1)C[C@H](NC(=O)[C@H](C(C)C)N(C)C(=O)[C@H]1CC[C@@H](C)N1C(=O)[C@@H]1CN1)C(=O)N1CCC[C@H](N1)C(=O)OCC(C)(C)C2 [Example 153] | < 5 µM | 1 to 10 µM | 0.1 to 1 µM | 0.1 to 1 µM | 0.1 to 1 µM | 0.1 to 1 µM | 0.1 to 1 µM | 0.1 to 1 µM | 0.01 to 0.1 µM | 0.01 to 0.1 µM | – | – |
| CCn1c(-c2cccnc2[C@H](C)OC)c2c3cc(ccc31)-c1cc(O)cc(c1)C[C@H](NC(=O)[C@H](C(C)C)N(C)C(=O)[C@H]1CC[C@@H](C)N1C(=O)[C@H]1CN1)C(=O)N1CCC[C@H](N1)C(=O)OCC(C)(C)C2 [Example 154] | < 5 µM | 1 to 10 µM | 1 to 10 µM | 0.1 to 1 µM | 0.1 to 1 µM | 0.1 to 1 µM | 1 to 10 µM | 0.1 to 1 µM | 0.01 to 0.1 µM | 0.01 to 0.1 µM | – | – |
| CCn1c(-c2cccnc2[C@H](C)OC)c2c3cc(ccc31)-c1cc(O)cc(c1)C[C@H](NC(=O)[C@H](C(C)C)N(C)C(=O)CN(C)C(=O)[C@H]1CN1CCO)C(=O)N1CCC[C@H](N1)C(=O)OCC(C)(C)C2 (stereo partly drawn) [Example 161] | < 5 µM | 1 to 10 µM | 0.1 to 1 µM | 0.01 to 0.1 µM | 0.01 to 0.1 µM | 0.01 to 0.1 µM | 0.1 to 1 µM | 0.01 to 0.1 µM | < 0.01 µM | < 0.01 µM | – | – |
| CCn1c(-c2cccnc2[C@H](C)OC)c2c3cc(ccc31)-c1cc(O)cc(c1)C[C@H](NC(=O)[C@H](C(C)C)N(C)C(=O)CN(C)C(=O)[C@@H]1CN1CCO)C(=O)N1CCC[C@H](N1)C(=O)OCC(C)(C)C2 (stereo partly drawn) [Example 162] | < 5 µM | 1 to 10 µM | 0.1 to 1 µM | 0.01 to 0.1 µM | 0.01 to 0.1 µM | 0.01 to 0.1 µM | 0.01 to 0.1 µM | 0.01 to 0.1 µM | < 0.01 µM | < 0.01 µM | – | – |
| CCn1c(-c2cccnc2[C@H](C)OC)c2c3cc(ccc31)-c1cc(O)cc(c1)C[C@H](NC(=O)[C@@H](C(C)C)N(C)C(=O)[C@@]1(C)CCCN1C(=O)[C@H]1CN1)C(=O)N1CCC[C@H](N1)C(=O)OCC(C)(C)C2 [Example 240] | – | – | – | – | – | – | – | – | – | – | < 5 µM | 1 to 10 µM |
| CCn1c(-c2cccnc2[C@H](C)OC)c2c3cc(ccc31)-c1cc(O)cc(c1)C[C@H](NC(=O)[C@@H](C(C)C)N(C)C(=O)[C@@]1(C)CCCN1C(=O)[C@@H]1CN1)C(=O)N1CCC[C@H](N1)C(=O)OCC(C)(C)C2 [Example 242] | – | – | – | – | – | – | – | – | – | – | < 5 µM | 1 to 10 µM |
| CCn1c(-c2cccnc2[C@H](C)OC)c2c3cc(ccc31)-c1cc(O)cc(c1)C[C@H](NC(=O)[C@H](C(C)C)N(C)C(=O)[C@]13C[C@H]1CCN3C(=O)[C@H]1CN1)C(=O)N1CCC[C@H](N1)C(=O)OCC(C)(C)C2 [Example 244] | – | – | – | – | – | – | – | – | – | – | < 5 µM | 1 to 10 µM |
